Values joined by “and” are separate entries in the source; they are usually repeats but may differ in a detail not shown here. Equal entries are not always repeated. Marks after values point to notes of the source that are not given here. Blank lines part the entries; values can stand above or below the compound they belong to.
Legend:
[1] = Study 1/Study 2: bioavailability of Zn lipoate and ZnSO4 in rats (Example 4, Comparison Example 1); assay type: in vivo
Protocol: Male Albino rats (Wistar) of an initial weight of 40 g were used. The animals were kept during each 28-day experimental period at a room temperature of 22° C., a relative humidity of approximately 55% and in a 12-hour light-dark cycle. The rats were housed individually in Makrolon cages with stainless steel bottoms which permitted controlled feed intake and quantitative collection of feces and urine. The feed was provided once a day at 8^00. The live mass of the rats was determined weekly, feces and urine were collected every day at 10^00 and 17^00. At the end of the experiment, the rats were decapitated after chloroform anesthesia. • 4.2 Description of the diets and experimental design
6 rats are used per experimental group. The mealy diets were administered ad lib. […] The control group (group 1) received the PA-free base diet.
The amounts of feces and urine produced separately in the metabolic cages are collected quantitatively every day and stored at −22° C. To avoid any losses of N in the urine collection vessels, 1 ml of 20% strength HCl (Suprapur) is added to each of the vessels daily. For further analysis, the sample material is freeze-dried for 48 h. • 4.3.2 Organ and tissue samples
The right femur, liver and testes are removed immediately after decapitation and complete exsanguination of the animals and the fresh mass is determined. The samples are sealed in plastic film and stored at −22° C. until further analysis. • 4.3.3 Blood
The rats are decapitated at the end of the experiment after complete narcosis with chloroform and the blood collected in heparinized plastic tubes. 40 I.U. of heparin sodium are introduced per ml of blood. […]
Zinc is determined by means of atomic absorption spectrophotometry (AAS) in an acetylene flame. • 4.5 Diagnosis of zinc status • 4.5.1 Determination of the plasma zinc concentration
The plasma zinc concentration is measured directly in the flame by means of AAS (Philips, PIJ 9400). […]
The enzyme activity is measured kinetically on a semimicroscale at a wavelength of 405 nm and 25° C. using a UV spectrophotometer. […]

[2] = Study 3: zootechnical parameters (feed intake, live weight) of growing rats; assay type: in vivo; conditions: for LW Gain: 28 days; for Live weight d0: initial weight
Protocol: (§1) 36 male Wistar albino rats (Harlan Winkelmann, Borchen) having an initial weight of 47.0±2.63 g were randomly divided into 6 groups each of 6 animals and fed the diets specified in Table 7 (experimental design) and Section 5.2 over a period of 28 days. The animals were kept individually in Makrolon cages on stainless grids under standard conditions (22° C., 55% relative humidity, 12 hour light/dark rhythm). Feed and deionized drinking water were available to the experimental animals ad libitum. During the 2nd and 3rd experimental week (metabolism phase) feces were collected quantitatively. After completion of the experimental phase (day 28), the animals were decapitated under CO2— anesthesia, exsanguinated and the tissue to be analyzed was removed. Groups Ib, IIb and IIIb here are Example 5, while Groups Ia, IIa and IIIa are Comparison Example 2.
Parameters used to estimate Zn availability were the zootechnical parameters feed intake, live weight development and live weight increase, apparent Zn absorption, alkaline phosphatase activity in plasma, plasma and femur Zn concentration and metallothionin concentration in liver tissue. • 5.2 Experimental diets
The experimental animals were fed semisynthetic diets based on high-purity components (corn starch, egg albumin protein, sucrose, soybean oil and cellulose) over a period of 28 days (see Table 8 for composition of the base diet), the experimental diets differing with respect to the type of zinc compound supplemented, the absolute Zn concentration and the phytic acid content (0.4% PA from NaPA, Sigma-Aldrich, Steinheim) (see Table 7).
Zn supplements used were Zn ((R)-α-Lipoat)2(H2O)2 from Example 1 (Example 5) and Zn sulfate (ZnSO4.7 H2O analytical grade, Merck, Darmstadt) (Comparison Example 2). The Zn concentrations of the experimental diets Ia-IIb were set at a level of 10 mg/kg of diet estimated to be marginal for growing rats, in order to enable investigation of the availability of the Zn supplements under test in the suboptimun supply range.

[3] = Study 3: Zn intake, fecal excretion and apparent absorption of zinc; assay type: in vivo; conditions: rats
Protocol: as §1
During the two-week metabolism phase, the rat feces were collected daily, adherent feed residues and other impurities were removed and the samples were stored at −20° C. At the end of the metabolism period the fecal weight was determined quantitatively and feces were then freeze-dried under vacuum over a period of 48 h (Gamma 1-20, Christ, Osterode). The dried samples were finely around using a domestic grinder (Moulinette electronic 89902) and stored at ambient temperature in PE bottles.
A sample aliquot of 1.5 g or the freeze-dried and ground fecal samples was dried for 24 h at 105° C. to remove residual water and then ashed in a muffle furnace at 450° C. for 21 h. The ash residue was dissolved by acid addition and then analyzed quantitatively. The Zn concentration in the fecal samples was determined by flame-AAS (Philips, PU 9400, Kassel). • 5.3.4 Diagnosis of Zn status
(§2) Zn absorption was calculated, without taking into account endogenous level as a difference between element […] and fecal excretion (=apparent absorption). Plasma Zn concentration was determined by AAS (Philips, PU 9400, Kassel). The samples were diluted with 0.1 M HCl in a ratio of 1:20 (v/v). The activity of the Zn metalloenzyme alkaline phosphatase (AP) (E.C. 3.1.3.1) wan assayed using the individual chemicals diethanolamine buffer and p-nitrophenyl phosphate according to the recommendations of the […] FÜR […] CHIMIE [German Clinical Chemistry Society] ([…] FÜR […] CHEMIE (1972). Standardmethode zur Bestimmung der Aktivität der alkalischen Phosphatase (AP) [Standard Method for Determining Alkaliur Phosphatase (AP) Activity]. Z. klin. Chem u. klin. Biochemie. 10, 191). • 5.3.5 Metallothionin in liver tissue

[4] = Study 3: Zn concentration in the femur; assay type: in vivo; conditions: rats; for Zn concentration in Femur: day 28
Protocol: as §1
The ash solutions were prepared by the principle of wet ashing. The sample material was admixed with 10 ml of 65% strength HNO3 (Merck, Suprapur) and then boiled under a reflux condenser in a digestion apparatus (Gerhardt SMA-20, Bonn). This oxidatively degraded the organic matrix and completely mineralized the test material. The Zn concentration was determined in the ash solutions by flame-AAS (Philips, PU 9400, Kassel). • 5.3.3 Analysis of the fecal samples

[5] = system: alkaline phosphatase (AP) (E.C. 3.1.3.1); assay: Study 3: alkaline phosphatase activity in plasma; assay type: in vivo; conditions: rats, day 28
Protocol: as §1, §2

[6] = system: metallothionin; assay: Study 3: metallothionin in liver tissue; assay type: in vivo; conditions: rats; for Metallothionin concentration in liver tissue: day 28
Protocol: as §1
Total MT concentration in liver tissue was determined using the cadmium-binding method of EATON and TOAL (EATON, D. L., TOAL, B. F. (1982): Evaluation of the cadmium/hemoglobin affinity assay for the rapid determination of metallothionein in biological tissues. Toxicol Appl. Pharmacol. 66, 134-142) in a modification tested at the Giessen Institute (LEUNERT, V. (1994): Einfluβ von Zink sowie fetalem Kälberserum, bovinem Serumalbumin und calciummobilisierenden Rezeptoragonlsten auf Metallothionein in primär kultivierten Rattenhepatocyten [Effect of zinc and fecal calf serum, vine serum albumin and calcium-immobilizing receptor agonists on metallothionin in primary cultivations of rat hepatocytes]. Inaugural dissertation at the Institut für Tierernahrung und Ernährungse-physiologie [Institute of Animal Nutrition and Nutritional Physiology] of the University of Cicesen, Verlag Shaker, Aachen, PALLAUF et al. 1995). The protein content in liver homogenates war determined using the Lowry-Folin method (DAWSON, R. M. C. ELLIOTT, D C; JONES, K. M. (1986): Data for biochemical research, 3rd ed., Clarendon Press, New York, 543). • 5.3.5. Statistical analysis

[7] = in vivo; cited from earlier work
[8] = 10 ppm Zn, PA-free diet (group I)
[9] = 20 ppm Zn + 0.4% PA (group III)

- absolute Zn absorption, Zn lipoate group versus Zn sulfate group ([3]; 20 mg Zn/kg of diet + 0.4% PA (groups IIIa, IIIb)): statistically significant higher
- Apparent absorption of Zn ([3]; 10 ppm Zn + 0.4% PA (group II)): 47.3 ^a %
- Apparent absorption of Zn (absolute) ([3]; 10 ppm Zn + 0.4% PA (group II)): 0.446 ^a mg/14 d
- Fecal excretion of Zn ([3]; 10 ppm Zn + 0.4% PA (group II)): 0.494 ^a mg/14 d
- Apparent absorption of Zn [3, 8]: 73.6 ^b %
- Apparent absorption of Zn (absolute) [3, 8]: 1.24 ^b mg/14 d
- Fecal excretion of Zn [3, 8]: 0.445 ^a mg/14 d
- Apparent absorption of Zn [3, 9]: 48.4 ^a %
- Apparent absorption of Zn (absolute) [3, 9]: 1.60 mg/14 d and 1.60 ^c mg/14 d
- Fecal excretion of Zn [3, 9]: 1.71 ^b mg/14 d
- apparent Zn absorption (%), effect of Zn lipoate supplementation ([3]; PA diets, group IIa to IIb and IIIa to IIIb): increase
- Zn concentration in Femur ([4]; 10 ppm Zn + 0.4% PA (group II)): 41.2 ^a μg/g FW
- Zn concentration in Femur [4, 8]: 79.2 ^c μg/g FW
- Zn concentration in Femur [4, 9]: 64.1 ^b μg/g FW
- level of Zn incorporation into the femur tissue, compared with Zn sulfate ([4]; with addition of phytate): beneficial effect
SMILES: O=C(O)CCCC[C@@H]1CCSS1 [Zn lipoate, Zn((R)-α-lipoate)2(H2O)2]
- zinc deficiency symptoms (anorexia, alopecia, depression of growth) ([1]; diet with 0.4% NaPA, high dose 20 mg Zn/kg of feed, 28 days): disappear completely
- Zn status parameters of blood plasma (Zn concentration, free zinc binding capacity, alkaline phosphatase activity) and femur and liver Zn concentration ([1]; in comparison with Zn sulfate): improved
- Feed intake Total ([2]; 10 ppm Zn + 0.4% PA (group II)): 186 ^a g/28d
- Feed intake d1-d7 ([2]; 10 ppm Zn + 0.4% PA (group II)): 39.5 ^ab g
- Feed intake d8-d14 ([2]; 10 ppm Zn + 0.4% PA (group II)): 46.5 ^a g
- Feed intake d15-d21 ([2]; 10 ppm Zn + 0.4% PA (group II)): 48.2 ^a g
- Feed intake d22-d28 ([2]; 10 ppm Zn + 0.4% PA (group II)): 51.3 ^a g
- Live weight d7 ([2]; 10 ppm Zn + 0.4% PA (group II)): 60.0^ab g
- Live weight d14 ([2]; 10 ppm Zn + 0.4% PA (group II)): 82.5^a g
- Live weight d21 ([2]; 10 ppm Zn + 0.4% PA (group II)): 99.1^a g
- Live weight d28 ([2]; 10 ppm Zn + 0.4% PA (group II)): 114.2^a g
- LW Gain ([2]; 10 ppm Zn + 0.4% PA (group II)): 67.0^a g
- Live weight d0 ([2]; 10 ppm Zn + 0.4% PA (group II)): 47.2 g
- Feed intake Total [2, 8]: 307 ^b g/28d
- Feed intake d1-d7 [2, 8]: 54.9 ^ab g
- Feed intake d8-d14 [2, 8]: 78.7 ^c g
- Feed intake d15-d21 [2, 8]: 86.9 ^c g
- Feed intake d22-d28 [2, 8]: 86.5 ^b g
- Live weight d7 [2, 8]: 75.6^ab g
- Live weight d14 [2, 8]: 122.5^b g
- Live weight d21 [2, 8]: 159.2^c g
- Live weight d28 [2, 8]: 185.8^c g
- LW Gain [2, 8]: 138.7^c g
- Live weight d0 [2, 8]: 47.1 g
- Feed intake Total [2, 9]: 300 ^b g/28d
- Feed intake d1-d7 [2, 9]: 60.0 ^b g
- Feed intake d8-d14 [2, 9]: 77.3 ^c g
- Feed intake d15-d21 [2, 9]: 79.2 ^bc g
- Feed intake d22-d28 [2, 9]: 83.5 ^b g
- Live weight d7 [2, 9]: 77.9^b g
- Live weight d14 [2, 9]: 119.1^b g
- Live weight d21 [2, 9]: 147.4^bc g
- Live weight d28 [2, 9]: 173.2^bc g
- LW Gain [2, 9]: 125.9^bc g
- Live weight d0 [2, 9]: 47.3 g
- total feed intake, change owing to Zn-α-lipoate feeding ([2]; 28-day period, versus Zn sulfate groups): increase
- live weight gain, Zn lipoate compared with Zn sulfate ([2]; in each case (groups I, II, III)): increase
- Alkaline Phosphatase activity in plasma ([5]; 10 ppm Zn + 0.4% PA (group II)): 225 ^a mU/ml Plasma
- Alkaline Phosphatase activity in plasma [5, 8]: 365 ^b mU/ml Plasma
- Alkaline Phosphatase activity in plasma [5, 9]: 384 ^b mU/ml Plasma
- Metallothionin concentration in liver tissue ([6]; 10 ppm Zn + 0.4% PA (group II)): 7.94 ng MT/mg Protein
- Metallothionin concentration in liver tissue [6, 8]: 8.32 ng MT/mg Protein
- Metallothionin concentration in liver tissue [6, 9]: 8.71 ng MT/mg Protein
- hepatic MT concentration, Zn lipoate versus ZnSO4 as Zn source ([6]; all groups (I, II and III)): nominal increases

SMILES: [Cl-].[Cl-].[Zn+2] [ZnCl2]
- bioavailability of Zn2+ from organic or inorganic sources [7]: roughly comparable
